Test [1] deals with recombinant HIV-1 viruses (NL4-3, RF, LAI) in MT-2 cells. Briefly: MT-2 cell susceptibility assay of recombinant viruses. Format: cell-based. Conditions: all three viral strains, I50L or I50L/A71V introduced by site-directed mutagenesis. How it is done:
Cells and Viruses. MT-2 cells, HIV-1 RF, HIV1-LAI, and the HIV-1 NL4-3 proviral clones were obtained through the AIDS Research and Reference Reagent Program, National Institutes of Health. MT-2 cells were cultured in RPMI 1640 medium supplemented with 10% fetal bovine serum, 2 mM L-glutamine, and 10 mM Hepes buffer. HIV-1 viruses were generated by transient transfection of the proviral DNA into Human Embryonic Kidney 293 cells using Lipofectamine reagents (Gibco BRL). The viruses were harvested 72 hr post-transfection, amplified in MT-2 cells, and titered in the same cells using a virus yield assay.
Recombinant HIV-1 Variants and Chimeric NL4-3 Proviral Clones. HIV-1 strains with defined substitutions in the protease gene were generated by QuikChange® site-directed mutagenesis as recommended by the manufacturer (Stratagene). Recombinant NL4-3 and LAI proviral clones containing the wild-type and mutant protease genes from RF and clinical isolates were constructed by replacing the SseI/ApaI fragment of pNL4-3 with the appropriate SseI/ApaI protease fragments.
Recombinant viruses (generated separately from those made for PhenoSense assays) were tested in an MT-2 cell susceptibility assay at Bristol Myers Squibb. MT-2 cells were infected with recombinant viruses at a multiplicity of infection (MOI) of 0.005 50% tissue culture infective doses (TCID50)/cell followed by incubation in the presence or absence of serially diluted protease inhibitors for 4 to 7 days. Virus yields were quantified using a RT assay as previously described. The results from at least four independent experiments were used to calculate the EC50.

The test system of test [2] is clinical isolates containing an I50V. Briefly: PhenoSense phenotypic susceptibility of clinical isolates containing I50V. Format: cell-based, HIV-1. The source says: (§1) Drug Susceptibility Assays. Clinical isolates were subjected to phenotypic (PhenoSense™) and genotypic (GeneSeq™) analysis by Virologic, Inc. as described elsewhere.
Because an I50V substitution is a signature mutation sometimes associated with APV resistance, the cross-resistance relationship between ATV and APV was further examined.

Test [3] has as its system clinical isolates containing a D30N substitution. Briefly: PhenoSense phenotypic susceptibility of clinical isolates containing D30N. Format: cell-based, HIV-1. Conditions: 75 D30N containing isolates, FIG. 3. As for the experimental part: as §1
Comparative Studies of I50L and D30N Containing Viruses. […] Comparative studies were performed on the 18 phenotyped viruses containing an I50L and 75 clinical isolates containing a D30N substitution without evidence of cross-resistance (FC≧2.5) to other PIs.

The test system of test [4] is clinical isolates containing an I50L substitution (and their baseline isolates). In words: PhenoSense phenotypic susceptibility of clinical isolates from ATV-treated patients who developed I50L. Format: cell-based, HIV-1. Particulars: for Subceptibility, Fold Change in EC50 relative to reference strain: Subject 169, Week 114; for median increase in susceptibility from baseline: on emergence of I50L, n=4 to 15; for percentage of I50L isolates with susceptibility (FC) 0.4-fold or lower: relative to the reference strain.
Source text: Study Population. Viral samples (baseline and on-treatment, where available) were obtained from patients who experienced virologic failure while enrolled in studies AI424-007/041 [12] (ATV+d4T and ddI), AI424-008/044 [13, 14] (ATV+d4T and 3TC) and AI424-034 [9] (ATV or EFV in combination with ZDV and 3TC). […] In general, virologic failure specimens were selected for further resistance evaluation only if they contained >1,000 copies/mL HIV-1 RNA and there was no indication that the specimen came from a patient at a time of transient non-adherence to study drug(s). […] For non-responders, samples from week 16 (or 24) were tested. Drug adherence was determined from pill counts of returned study medications at each scheduled visit.
as §1

Test [5] relates to clinical isolates from patients on NFV regimens. Particulars: isolates containing D30N as the only primary PI mutation; cited from earlier work.
Test [6] relates to HIV-1 variants containing I50V. Particulars: in vitro; cited from earlier work.

As for `CC(C)CN(C[C@@H](O)[C@H](Cc1ccccc1)NC(=O)O[C@H]1CCOC1)S(=O)(=O)c1ccc(N)cc1` [APV, amprenavir], the change in susceptibility entry in test [1] is “enhanced susceptibility”. The “Susceptibility, Fold Change in EC50 relative to reference strain” value in test [2] (Isolate with I50V 1) worked out at 3.5 Fold Change; in test [2] (Isolate with I50V 2), 4.2 Fold Change; in test [2] (Isolate with I50V 3), 8.0 Fold Change; in test [2] (Isolate with I50V 4), 9.4 Fold Change; in test [2] (Isolate with I50V 5), 11 Fold Change; in test [2] (Isolate with I50V 6), 11 Fold Change. In addition, the “Susceptibility, Fold Change in EC50 relative to reference strain” value in test [2] (Isolate with I50V 7) worked out at 12 Fold Change; in test [2] (Isolate with I50V 8) it was 14 Fold Change; in test [4] (Isolate with I50L 1) it was 0.3 Fold Change; in test [4] (Isolate with I50L 2), 0.6 Fold Change; in test [4] (Isolate with I50L 3), 0.5 Fold Change; in test [4] (Isolate with I50L 4), 0.4 Fold Change. The “Susceptibility, Fold Change in EC50 relative to reference strain” value in test [4] (Isolate with I50L 5) was found to be 0.6 Fold Change; in test [4] (Isolate with I50L 6), 0.4 Fold Change; in test [4] (Isolate with I50L 7) it was 0.6 Fold Change; in test [4] (Isolate with I50L 8), 0.8 Fold Change; in test [4] (Isolate with I50L 9), 0.6 Fold Change; in test [4] (Isolate with I50L 10) it was 0.3 Fold Change. Moreover, the “Susceptibility, Fold Change in EC50 relative to reference strain” value in test [4] (Isolate with I50L 11) is listed as 0.4 Fold Change; in test [4] (Isolate with I50L 12), 0.7 Fold Change; in test [4] (Isolate with I50L 13) it was 0.7 Fold Change; in test [4] (Isolate with I50L 14), 0.8 Fold Change; in test [4] (Isolate with I50L 15), 0.9 Fold Change; in test [4] (Isolate with I50L 16), 0.4 Fold Change. Also, the “Susceptibility, Fold Change in EC50 relative to reference strain” value in test [4] (Subject 076, Week 80) is 0.6 Fold Change; in test [4] (Subject 076, Week 92), 0.9 Fold Change; in test [4] (Subject 100, Week 1.7), 1.5 Fold Change; in test [4] (Subject 169, Week 0.1), 0.6 Fold Change; in test [4] (Subject 169, Week 90), 0.7 Fold Change; in test [4] (Subject 169, Week 102), 0.6 Fold Change. Moreover, the “Susceptibility, Fold Change in EC50 relative to reference strain” value in test [4] (Subject 362, Week 0.1) is listed as 1.0 Fold Change; in test [4] (Subject 362, Week 108) it was 1.1 Fold Change. Also, in test [3], the “median FC” value was 0.6. Further, in test [4] (I50L containing clinical isolates), the cross-resistance result is listed as “none of the I50L containing clinical isolates showed evidence of APV resistance”. For the same compound, the “Subceptibility, Fold Change in EC50 relative to reference strain” value in test [4] is 1.2 Fold Change. The “percentage of baseline isolates exhibiting a FC≦0.4” value in test [4] came to 21%. Besides, in test [4], the “median increase in susceptibility from baseline” value (“median increase” below) turned out to be 1.5 fold. In test [4], the “percentage of I50L isolates with susceptibility (FC) 0.4-fold or lower” value (from here on “percentage … (FC) 0.4-fold or lower”) is 39%. Moreover, in test [5], the susceptibility result is recorded as “remained susceptible”.

Take `Cc1cccc(C)c1OCC(=O)N[C@@H](Cc1ccccc1)[C@@H](O)C[C@H](Cc1ccccc1)NC(=O)[C@H](C(C)C)N1CCCNC1=O` [LPV, lopinavir]: in test [1], the change in susceptibility result was “enhanced susceptibility”. Further, the “effect of I50V on susceptibility” value in test [6] is on record as “reduced susceptibility”. Also, the “Susceptibility, Fold Change in EC50 relative to reference strain” value in test [4] (Subject 076, Week 80) was determined as 0.6 Fold Change. Besides, the “Susceptibility, Fold Change in EC50 relative to reference strain” value in test [4] (Subject 076, Week 92) was 0.5 Fold Change. Besides, in test [4], the “percentage of baseline isolates exhibiting a FC≦0.4” value amounted to 0%, the “median increase” value was found to be 3.2 fold, the “percentage … (FC) 0.4-fold or lower” value was found to be 100% and the “median FC” value is ≤ 0.4.

In the case of `CC(C)c1nc(CN(C)C(=O)N[C@H](C(=O)N[C@@H](Cc2ccccc2)C[C@H](O)[C@H](Cc2ccccc2)NC(=O)OCc2cncs2)C(C)C)cs1` [RTV, ritonavir], in test [1], the change in susceptibility result is recorded as “enhanced susceptibility”. In addition, the “effect of I50V on susceptibility” value in test [6] is reported as “reduced susceptibility”. Moreover, the “Susceptibility, Fold Change in EC50 relative to reference strain” value is on record as 0.3 Fold Change in test [4] (Subject 076, Week 80); 0.3 Fold Change in test [4] (Subject 076, Week 92); 2.2 Fold Change in test [4] (Subject 100, Week 1.7); 1.5 Fold Change in test [4] (Subject 169, Week 0.1); 0.3 Fold Change in test [4] (Subject 169, Week 90); 0.3 Fold Change in test [4] (Subject 169, Week 102). The “Susceptibility, Fold Change in EC50 relative to reference strain” value was determined as 1.1 Fold Change in test [4] (Subject 362, Week 0.1) and 0.4 Fold Change in test [4] (Subject 362, Week 108). The “Subceptibility, Fold Change in EC50 relative to reference strain” value in test [4] was 0.4 Fold Change. The “percentage of baseline isolates exhibiting a FC≦0.4” value in test [4] is given as 10%. Also, the “median increase” value in test [4] was determined as 4.1 fold. Further, in test [4], the “percentage … (FC) 0.4-fold or lower” value is 83%. The “median FC” value in test [4] is recorded as ≤ 0.4. Besides, the susceptibility result in test [5] is listed as “remained susceptible”.

Consider `CC(C)(C)NC(=O)[C@@H]1C[C@@H]2CCCC[C@@H]2CN1C[C@@H](O)[C@H](Cc1ccccc1)NC(=O)[C@H](CC(N)=O)NC(=O)c1ccc2ccccc2n1` [SQV, saquinavir], for which the change in susceptibility result in test [1] is “enhanced susceptibility”. In test [6], the “effect of I50V on susceptibility” value is “increased susceptibility”. Also, the “Susceptibility, Fold Change in EC50 relative to reference strain” value in test [4] (Subject 076, Week 80) stood at 0.3 Fold Change; in test [4] (Subject 076, Week 92), 0.5 Fold Change; in test [4] (Subject 100, Week 1.7) it was 1.3 Fold Change; in test [4] (Subject 169, Week 0.1), 0.8 Fold Change; in test [4] (Subject 169, Week 90), 0.5 Fold Change; in test [4] (Subject 169, Week 102) it was 0.4 Fold Change. The “Susceptibility, Fold Change in EC50 relative to reference strain” value is reported as 1.0 Fold Change in test [4] (Subject 362, Week 0.1) and 0.5 Fold Change in test [4] (Subject 362, Week 108). Further, the “Subceptibility, Fold Change in EC50 relative to reference strain” value in test [4] is reported as 0.5 Fold Change. The “percentage of baseline isolates exhibiting a FC≦0.4” value in test [4] turned out to be 10%. The “median increase” value in test [4] is on record as 2.0 fold. For the same compound, the “percentage … (FC) 0.4-fold or lower” value in test [4] is listed as 72%. Also, the “median FC” value in test [4] is ≤ 0.4. Further, the susceptibility result in test [5] is given as “remained susceptible”.

Values taken from patent publication US20050148523A1, “Method of treating HIV infection in atazanavir-resistant patients using a combination of atazanavir and another protease inhibitor” (priority 2003, published 2005).
